The test relates to RS4; 11 cell line. Description: CellTiter-Glo Luminescent Cell Viability Assay, cell growth inhibition. Type of test: cell-based. As to conditions: Homo sapiens, 96 h, 4 days. The method, then:
Cell growth inhibitory activity of representative MDM2 protein degraders was determined using CellTiter-Glo® Luminescent Cell Viability Assay. Cells were seeded in 384-well white opaque cell culture plates at a density of 2,000 cells/well with serially diluted compounds and incubated at 37° C. in an atmosphere of 95% air and 5% CO2 for 4 days. Cell viability was determined using the CellTiter-Glo® Luminescent Cell Viability Assay Kit (Promega, Madison, WI) according to the manufacture's instruction. Briefly, a volume of CellTiter-Glo® Reagent equal to the volume of cell culture medium was added to each well, and then the plates were incubated at room temperature for 10-20 minutes. The luminescent signal was measured using a Tecan Infinite M1000 multimode microplate reader (Tecan, Morrisville, NC). The half maximal inhibitory concentration (IC50) was calculated using the GraphPad Prism 5 software (GraphPad Software, La Jolla, CA). Cpd. […] The structure of Cpd.
Background: In ATP-based viability assays light output follows the ATP content of the culture.
By IC50 is commonly meant the concentration needed to halve the response being measured. A high value points to lower potency. `O=C1CCC(N2C(=O)c3cccc(NCCCOCCOCCOCCCNC(=O)c4ccc(NC(=O)[C@@H]5NC6(CCCCC6)[C@@]6(C(=O)Nc7cc(Cl)ccc76)[C@H]5c5cccc(Cl)c5F)cn4)c3C2=O)C(=O)N1` (stereo partly drawn) [Cpd. No. 27, (3′R,4'S,5′R)-6″-chloro-4′-(3-chloro-2-fluorophenyl)-N-(6-((3-(2-(2-(3-((2-(2,6-dioxopiperidin-3-yl)-1,3-dioxoisoindolin-4-yl)amino)propoxy)ethoxy)ethoxy)propyl)carbamoyl)pyridin-3-yl)-2″-oxodispiro[cyclohexane-1,2′-pyrrolidine-3′,3″-indoline]-5′-carboxamide] yielded an IC50 of 4.6 nM.

`O=C1CCC(N2Cc3c(CCCOCCOCCNC(=O)c4ccc(NC(=O)[C@@H]5NC6(CCCCC6)[C@@]6(C(=O)Nc7cc(Cl)ccc76)[C@H]5c5cccc(Cl)c5F)cc4)cccc3C2=O)C(=O)N1` (stereo partly drawn) [Cpd. No. 35, (3′R,4'S,5′R)-6″-chloro-4′-(3-chloro-2-fluorophenyl)-N-(4-((2-(2-(3-(2-(2,6-dioxopiperidin-3-yl)-1-oxoisoindolin-4-yl)propoxy)ethoxy)ethyl)carbamoyl)phenyl)-2″-oxodispiro[cyclohexane-1,2′-pyrrolidine-3′,3″-indoline]-5′-carboxamide] returned an IC50 of 5.7 nM.

For `O=C1CCC(N2Cc3c(CCCCCNC(=O)c4ccc(NC(=O)[C@@H]5NC6(CCCCC6)[C@@]6(C(=O)Nc7cc(Cl)ccc76)[C@H]5c5cccc(Cl)c5F)cc4)cccc3C2=O)C(=O)N1` (stereo partly drawn) [Cpd. No. 31, (3′R,4'S,5′R)-6″-chloro-4′-(3-chloro-2-fluorophenyl)-N-(4-((5-(2-(2,6-dioxopiperidin-3-yl)-1-oxoisoindolin-4-yl)pentyl)carbamoyl)phenyl)-2″-oxodispiro[cyclohexane-1,2′-pyrrolidine-3′,3″-indoline]-5′-carboxamide], 1.8 nM corresponded to half-maximal inhibition (IC50).

Take `O=C1CCC(N2C(=O)c3cccc(CCCOCCOCCNC(=O)c4ccc(NC(=O)[C@@H]5NC6(CCCCC6)[C@@]6(C(=O)Nc7cc(Cl)ccc76)[C@H]5c5cccc(Cl)c5F)cc4)c3C2=O)C(=O)N1` (stereo partly drawn) [Cpd. No. 36, (3′R,4'S,5′R)-6″-chloro-4′-(3-chloro-2-fluorophenyl)-N-(4-((2-(2-(3-(2-(2,6-dioxopiperidin-3-yl)-1,3-dioxoisoindolin-4-yl)propoxy)ethoxy)ethyl)carbamoyl)phenyl)-2″-oxodispiro[cyclohexane-1,2′-pyrrolidine-3′,3″-indoline]-5′-carboxamide]: the IC50 turned out to be 37.4 nM.

The compound `O=C1CCC(N2C(=O)c3cccc(CCCOCCOCCOCCNC(=O)c4ccc(NC(=O)[C@@H]5NC6(CCCCC6)[C@@]6(C(=O)Nc7cc(Cl)ccc76)[C@H]5c5cccc(Cl)c5F)cc4)c3C2=O)C(=O)N1` (stereo partly drawn) [Cpd. No. 38, (3′R,4'S,5′R)-6″-chloro-4′-(3-chloro-2-fluorophenyl)-N-(4-((2-(2-(2-(3-(2-(2,6-dioxopiperidin-3-yl)-1,3-dioxoisoindolin-4-yl)propoxy)ethoxy)ethoxy)ethyl)carbamoyl)phenyl)-2″-oxodispiro[cyclohexane-1,2′-pyrrolidine-3′,3″-indoline]-5′-carboxamide] had an IC50 of 46 nM.

Consider `O=C1CCC(N2C(=O)c3cccc(CCCCCNC(=O)c4ccc(NC(=O)[C@@H]5NC6(CCCCC6)[C@@]6(C(=O)Nc7cc(Cl)ccc76)[C@H]5c5cccc(Cl)c5F)cc4)c3C2=O)C(=O)N1` (stereo partly drawn) [Cpd. No. 32, (3′R,4'S,5′R)-6″-chloro-4′-(3-chloro-2-fluorophenyl)-N-(4-((5-(2-(2,6-dioxopiperidin-3-yl)-1,3-dioxoisoindolin-4-yl)pentyl)carbamoyl)phenyl)-2″-oxodispiro[cyclohexane-1,2′-pyrrolidine-3′,3″-indoline]-5′-carboxamide], for which the IC50 stood at 23 nM.

`O=C1CCC(N2C(=O)c3cccc(NCCCCCNC(=O)c4ccc(NC(=O)[C@@H]5NC6(CCCCC6)[C@@]6(C(=O)Nc7cc(Cl)ccc76)[C@H]5c5cccc(Cl)c5F)cc4)c3C2=O)C(=O)N1` (stereo partly drawn) [Cpd. No. 10, (3′R,4'S,5′R)-6″-chloro-4′-(3-chloro-2-fluorophenyl)-N-(4-((5-((2-(2,6-dioxopiperidin-3-yl)-1,3-dioxoisoindolin-4-yl)amino)pentyl)carbamoyl)phenyl)-2″-oxodispiro[cyclohexane-1,2′-pyrrolidine-3′,3″-indoline]-5′-carboxamide] yielded a 50% inhibitory concentration (IC50) of 12 nM.

With `CC1(C)CCC2(CC1)N[C@@H](C(=O)Nc1ccc(C(=O)NCCOCCOCCNc3cccc4c3C(=O)N(C3CCC(=O)NC3=O)C4=O)cc1)[C@H](c1cccc(Cl)c1F)[C@]21C(=O)Nc2cc(Cl)ccc21` (stereo partly drawn) [Cpd. No. 52, (3′R,4'S,5′R)-6″-chloro-4′-(3-chloro-2-fluorophenyl)-N-(4-((2-(2-(2-((2-(2,6-dioxopiperidin-3-yl)-1,3-dioxoisoindolin-4-yl)amino)ethoxy)ethoxy)ethyl)carbamoyl)phenyl)-4,4-dimethyl-2″-oxodispiro[cyclohexane-1,2′-pyrrolidine-3′,3″-indoline]-5′-carboxamide], half-maximal inhibition (IC50) was put at 1.5 nM.

Take `O=C1CCC(N2C(=O)c3cccc(NCCCOCCOCCOCCCNC(=O)c4ccc(NC(=O)[C@@H]5NC6(CCCCC6)[C@@]6(C(=O)Nc7cc(Cl)ccc76)[C@H]5c5cccc(Cl)c5F)nc4)c3C2=O)C(=O)N1` (stereo partly drawn) [Cpd. No. 25, (3′R,4'S,5′R)-6″-chloro-4′-(3-chloro-2-fluorophenyl)-N-(5-((3-(2-(2-(3-((2-(2,6-dioxopiperidin-3-yl)-1,3-dioxoisoindolin-4-yl)amino)propoxy)ethoxy)ethoxy)propyl)carbamoyl)pyridin-2-yl)-2″-oxodispiro[cyclohexane-1,2′-pyrrolidine-3′,3″-indoline]-5′-carboxamide]: the IC50 was 7.4 nM.

`O=C1CCC(N2C(=O)c3cccc(NCCOCCOCCNC(=O)c4ccc(NC(=O)[C@@H]5NC6(CCCCC6)[C@@]6(C(=O)Nc7cc(Cl)ccc76)[C@H]5c5cccc(Cl)c5F)cn4)c3C2=O)C(=O)N1` (stereo partly drawn) [Cpd. No. 26, (3′R,4'S,5′R)-6″-chloro-4′-(3-chloro-2-fluorophenyl)-N-(6-((2-(2-(2-((2-(2,6-dioxopiperidin-3-yl)-1,3-dioxoisoindolin-4-yl)amino)ethoxy)ethoxy)ethyl)carbamoyl)pyridin-3-yl)-2″-oxodispiro[cyclohexane-1,2′-pyrrolidine-3′,3″-indoline]-5′-carboxamide] gave an IC50 of 8 nM.

Compound `O=C1CCC(N2Cc3c(NC(=O)CCOCCOCCNC(=O)c4ccc(NC(=O)[C@@H]5NC6(CCCCC6)[C@@]6(C(=O)Nc7cc(Cl)ccc76)[C@H]5c5cccc(Cl)c5F)cc4)cccc3C2=O)C(=O)N1` (stereo partly drawn) [Cpd. No. 29, (3′R,4'S,5′R)-6″-chloro-4′-(3-chloro-2-fluorophenyl)-N-(4-((2-(2-(3-((2-(2,6-dioxopiperidin-3-yl)-1-oxoisoindolin-4-yl)amino)-3-oxopropoxy)ethoxy)ethyl)carbamoyl)phenyl)-2″-oxodispiro[cyclohexane-1,2′-pyrrolidine-3′,3″-indoline]-5′-carboxamide] registered an IC50 of 15 nM.

Turning to `O=C1CCC(N2Cc3c(CCCOCCNC(=O)c4ccc(NC(=O)[C@@H]5NC6(CCCCC6)[C@@]6(C(=O)Nc7cc(Cl)ccc76)[C@H]5c5cccc(Cl)c5F)cc4)cccc3C2=O)C(=O)N1` (stereo partly drawn) [Cpd. No. 33, (3′R,4'S,5′R)-6″-chloro-4′-(3-chloro-2-fluorophenyl)-N-(4-((2-(3-(2-(2,6-dioxopiperidin-3-yl)-1-oxoisoindolin-4-yl)propoxy)ethyl)carbamoyl)phenyl)-2″-oxodispiro[cyclohexane-1,2′-pyrrolidine-3′,3″-indoline]-5′-carboxamide], the IC50 is 2.9 nM.
